According to patent US20080254993A1, “Use of abscisic acid analogs to enhance growth control” (priority 2007, published 2008):

How the values were obtained:
Kentucky bluegrass = assay: Greenhouse study on Kentucky bluegrass: turfgrass height, clip weight, turfgrass quality (Example 1); format: in vivo
Description: Greenhouse studies were conducted at the Research Farm of Valent BioSciences Corporation (Long Grove, Ill.). Grasses were grown in pots (18 cm in diameter and 18 cm in height) filled with Promix BX (available from Premier Horticulture Inc. Quakertown, Pa.). Grass was irrigated daily by an overhead irrigation system. The irrigation system was set up with multiple Tornado Mist Spray Heads (10 GPH at 40 PSI-Wetted diameter, NDS/Raindrip, Woodland Hills, Calif.). Spray heads were 1-meter apart from each other and 75 cm above grass canopy. Grass was cut with a scissor at 2.5 cm height and fertilizer (1 g/L all purpose fertilizer 20-20-20, available from The Scotts Company, Marysville, Ohio) was applied once per week.
(§1) Chemical solutions were prepared with distilled water. Tween 20 (0.05% v/v) was used as the surfactant when necessary. Trinexapac-ethyl (commercial product Primo Maxx, 11.3% active ingredient) was purchased from Syngenta Crop Protection Inc. (Greensboro, N.C.). ABA analogs, 8′ acetylene-ABA, acid (PBI-524), 8′ acetylene-ABA, ester (PBI-429), 8′ cyclopropane ester (PBI-696), or Tetralone, first carbon tail acetylene, ester (PBI-702), were obtained from Plant Biotechnology Institute, National Research Council of Canada (Saskatoon, Saskatchewan, Canada).
(§2) Chemical solutions were foliar applied to the turfgrass canopy at the rate of 4-gallons/1000 square foot (or 0.163 L/m^−2) immediately after finishing the preparation of solutions. After treatment, turfgrasses were arranged in a randomized complete block experimental design. Turfgrass quality, turfgrass height or clip fresh weight was measured on assigned dates. Turfgrass quality was visually rated on a 0-9 scale based on the color, uniformity, and density of the grass with 0 as the worst and 9 as the best. Turfgrass height was measured as the distance between canopy surface and soil. Clippings were collected form each plot; all plots were cut to a uniform height.
(§3) All experiments were randomized complete block experimental design. Data were analyzed by analysis of variance. Duncan's new multiple range tests at α=0.05 were used for mean separations.
Kentucky bluegrass sod was purchased from Deak sod farms, Inc. (Union Grove, Wis.). Grass was grown in the greenhouse for 94 days for establishment. Turfgrass was treated with one time foliar application of 50 ppm PBI-524, PBI-429, PBI-696 or PBI-702 alone or in combination with 250 ppm trinexapac-ethyl. The turfgrass was cut every 7 days. Turfgrass quality, turfgrass height, and clip weight were measured on days 7 and 35 after treatment.

creeping bentgrass = assay: Golf course green field study on creeping bentgrass with PBI-702: turfgrass height, soil moisture, turf quality (Example 3); format: in vivo, Penncross creeping bentgrass; settings: for Soil moisture / Turfgrass height / Turf quality: 50 ppm PBI-702 alone; for Turf quality: visual 0-9 scale, 9 best
Description: Field studies were conducted at the nursery green or the practice green at Countryside golf course (Mundelein, Ill.). Both greens were sand based and growing Penncross creeping bentgrass. Grass was managed with typical Illinois golf course management practices.
as §1, §2, §3
Trinexapac-ethyl (25 ppm) or PBI-702 (50 ppm) were one time foliar applied alone or in combination to creeping bentgrass in the golf course green to investigate their effect on turfgrass quality, growth inhibition and soil moisture.

[1] = 7 days after treatment, 50 ppm ABA analog alone
[2] = 35 days after treatment, 50 ppm ABA analog alone

C#CC1(C)CC(=O)C=C(C)C1(O)C=CC(C)=CC(=O)O (stereo not shown) [PBI-524, 8′ acetylene-ABA, acid]
Clip Weight (Kentucky bluegrass; [1]): 0.5 g | Turfgrass height (Kentucky bluegrass; [1]): 5.8 cm | Turfgrass quality (Kentucky bluegrass; 7 days after treatment, 50 ppm ABA analog alone, visual 0-9 scale, 9 best): 6.6 | Turfgrass height and clip weight compared to the control (in words) (Kentucky bluegrass; 7 days after treatment, trinexapac-ethyl 250 ppm, PBI-524 or PBI-429 50 ppm, alone or combined): reduced turfgrass height and clip weight compared to the control | Clip Weight (Kentucky bluegrass; [2]): 1.9 g | Turfgrass height (Kentucky bluegrass; [2]): 8.0 cm | Turfgrass height and clip weight (in words) (Kentucky bluegrass; [2]): no longer reduced turfgrass height and clip weight

COC(=O)/C=C(/C)C#CC1(O)c2ccccc2C(=O)CC1(C)C (stereo not shown) [PBI-702, Tetralone, first carbon tail acetylene, ester]
Soil moisture (creeping bentgrass; 4 days after treatment): 12.3% | Turfgrass height (creeping bentgrass; 4 days after treatment): 6.7 mm | Soil moisture (creeping bentgrass; 7 days after treatment): 11.5% | Turfgrass height (creeping bentgrass; 7 days after treatment): 6.5 mm | Turf quality (creeping bentgrass; 7 days after treatment): 7.3 | Reducing growth (in words) (creeping bentgrass; 7 days after treatment, trinexapac-ethyl 25 ppm, PBI-702 50 ppm, alone or combined): effective at reducing growth | Soil moisture (creeping bentgrass; 38 days after treatment): 12.4% | Turfgrass height (creeping bentgrass; 38 days after treatment): 5.5 mm | Turf quality (creeping bentgrass; 38 days after treatment): 7.6
